Laboratory results published in paper PMC7304964 (Science Advances, 2020).

Target: T1, human NPC1L1 (Homo sapiens, UniProt Q9UHC9)
T1 sequence (Q9UHC9 22-1359): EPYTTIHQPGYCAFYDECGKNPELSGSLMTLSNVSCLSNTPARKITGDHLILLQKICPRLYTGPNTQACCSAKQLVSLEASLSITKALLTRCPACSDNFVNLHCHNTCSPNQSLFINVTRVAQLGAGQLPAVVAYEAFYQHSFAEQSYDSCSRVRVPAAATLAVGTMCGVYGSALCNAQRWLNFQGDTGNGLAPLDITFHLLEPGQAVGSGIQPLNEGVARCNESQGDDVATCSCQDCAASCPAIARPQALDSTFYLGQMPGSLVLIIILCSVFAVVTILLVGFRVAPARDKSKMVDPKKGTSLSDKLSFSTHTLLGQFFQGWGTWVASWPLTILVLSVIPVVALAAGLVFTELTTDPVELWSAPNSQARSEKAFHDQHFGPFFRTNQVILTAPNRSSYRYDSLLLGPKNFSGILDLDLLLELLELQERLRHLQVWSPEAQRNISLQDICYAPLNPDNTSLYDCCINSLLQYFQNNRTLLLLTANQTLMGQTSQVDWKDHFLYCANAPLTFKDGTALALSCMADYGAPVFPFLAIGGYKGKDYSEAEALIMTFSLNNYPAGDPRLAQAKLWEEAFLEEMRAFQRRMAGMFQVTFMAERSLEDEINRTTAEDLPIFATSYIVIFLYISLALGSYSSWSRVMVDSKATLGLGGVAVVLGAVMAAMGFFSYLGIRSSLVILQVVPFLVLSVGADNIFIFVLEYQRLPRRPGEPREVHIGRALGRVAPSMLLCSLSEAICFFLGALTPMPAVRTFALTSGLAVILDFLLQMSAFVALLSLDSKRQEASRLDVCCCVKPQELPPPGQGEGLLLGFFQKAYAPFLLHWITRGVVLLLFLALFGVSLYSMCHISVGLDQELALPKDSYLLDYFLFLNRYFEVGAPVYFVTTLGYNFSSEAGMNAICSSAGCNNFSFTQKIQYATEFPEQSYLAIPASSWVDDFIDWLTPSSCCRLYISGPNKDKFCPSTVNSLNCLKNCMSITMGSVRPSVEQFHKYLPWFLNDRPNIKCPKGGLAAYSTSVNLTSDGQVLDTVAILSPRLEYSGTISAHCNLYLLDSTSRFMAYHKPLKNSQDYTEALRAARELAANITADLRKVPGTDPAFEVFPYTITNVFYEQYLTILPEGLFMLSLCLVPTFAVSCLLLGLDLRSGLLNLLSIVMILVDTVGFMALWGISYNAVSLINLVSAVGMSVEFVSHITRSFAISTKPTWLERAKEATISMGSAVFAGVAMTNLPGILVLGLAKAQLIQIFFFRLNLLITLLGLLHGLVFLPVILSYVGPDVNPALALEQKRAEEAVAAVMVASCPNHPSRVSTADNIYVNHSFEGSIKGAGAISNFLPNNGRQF
Assay: 3H-cholesterol uptake inhibition in hNPC1L1/MDCKII cells
Format: cell-based

Row | IC50 [nM] | Structure (SMILES)
1 | 3860 | O=C1[C@H](CC[C@H](O)c2ccc(F)cc2)[C@@H](c2ccc(O)cc2)N1c1ccc(F)cc1 [Eze, ezetimibe]
2 | 682 | O=C(O)[C@H]1O[C@@H](Oc2ccc([C@@H]3[C@@H](CC[C@H](O)c4ccc(F)cc4)C(=O)N3c3ccc(F)cc3)cc2)[C@H](O)[C@@H](O)[C@@H]1O [Eze-Glu, ezetimibe-glucuronide]
